Counter-ions that a name gives are not always drawn. Like-named read-outs stand apart in the source and are kept apart here.
Tests used:
[1] = biological target: T1, cloned human 5-HT2A receptor (Homo sapiens, UniProt P28223); assay: Determination of Ki at 5-HT2A receptor (radioligand binding, [3H]-Ketanserine); conditions: CHO-K1 recombinant cells; [3H]-Ketanserine 1.25 nM; read-out: Ki h5-HT2A
T1 construct: expressed in transfected cells; host or cells: CHO-K1
Protocol: (§1) Compounds were tested according to the following procedure.
• Receptor source: Recombinant mammalian cells (CHO-K1) • Radioligand: [^3H]-Ketanserine (41.9 Ci/mmol) • Final ligand concentration: 1.25 nM • Non-specific determinant: 0.1 mM 1-Napthyl piperazine (1-NP) • Reference compound: 1-Napthyl piperazine (1-NP) • Positive control: 1-Napthyl piperazine (1-NP) Incubation Conditions:
(§2) Reactions were carried out in buffer with pH 7.4 containing 50 mM Tris-HCl, 4 mM CaCl2), 0.1% Ascorbic acid for 1 h at r.t. The reaction was terminated by rapid vacuum filtration onto the glass fiber filters. Radioactivity trapped onto the filters was determined and compared to the control values in order to ascertain any interactions of the test compound(s) with cloned human 5-HT2A receptor binding site.

[2] = biological target: cloned human SERT receptor (Homo sapiens, UniProt P31645); assay: Determination of Ki at SERT receptor (SPA binding, [3H]-Citalopram); conditions: HEK293 recombinant cells, [3H]-Citalopram 2 nM, read-out: Ki hSERT
Chain of cloned human SERT receptor (P31645 whole entry): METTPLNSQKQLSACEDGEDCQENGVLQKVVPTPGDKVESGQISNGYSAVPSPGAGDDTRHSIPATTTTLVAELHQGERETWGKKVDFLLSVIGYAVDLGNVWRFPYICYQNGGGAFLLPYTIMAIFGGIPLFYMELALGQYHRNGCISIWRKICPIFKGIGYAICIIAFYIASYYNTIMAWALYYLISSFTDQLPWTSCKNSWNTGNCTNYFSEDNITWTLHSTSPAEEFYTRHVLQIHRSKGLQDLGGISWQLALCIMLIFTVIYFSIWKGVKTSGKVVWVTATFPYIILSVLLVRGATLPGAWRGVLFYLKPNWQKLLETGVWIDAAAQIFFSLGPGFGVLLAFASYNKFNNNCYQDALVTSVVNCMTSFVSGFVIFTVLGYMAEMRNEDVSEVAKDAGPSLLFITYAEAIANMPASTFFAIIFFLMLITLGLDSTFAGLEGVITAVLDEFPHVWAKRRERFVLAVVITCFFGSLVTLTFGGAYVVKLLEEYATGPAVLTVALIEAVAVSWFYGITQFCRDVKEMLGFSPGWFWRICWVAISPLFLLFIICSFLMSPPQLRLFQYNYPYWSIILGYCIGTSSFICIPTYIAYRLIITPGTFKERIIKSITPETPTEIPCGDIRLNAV
Protocol: as §1
• Receptor source: Recombinant mammalian cells (HEK293) • Radioligand: [^3H]-Citalopram (80.8 Ci/mmol) • Final ligand concentration: 2 nM • Non-specific determinant: 0.1 mM Venlafaxine • Reference compound: Venlafaxine • Positive control: Venlafaxine Incubation Conditions:
Reactions were carried out in buffer with pH 7.4 containing 50 mM Tris-HCl, 150 mM NaCl, 5 mM KCl and scintillation proximity assay (SPA) beads (0.1 mg/well) for 3 h at r.t. Radioactivity proximal to SPA beads was determined by scintillation proximity assay and compared to the control values in order to ascertain any interactions of the test compound(s) with cloned human SERT receptor binding site.
Reference: Journal of Pharmacology and Experimental Therapeutics, 1987, 242 (1), 364-371.

[3] = biological target: T2, hD2S (cloned human dopamine D2S receptor) (Homo sapiens, UniProt P14416); assay: Determination of Ki at D2S receptor (radioligand binding, [3H]-Raclopride); conditions: CHO-K1 recombinant cells; [3H]-Raclopride 4 nM; read-out: Ki hD2S
T2 construct: expressed in transfected cells; host or cells: CHO-K1
T2 sequence (P14416 1-414 isoform P14416-2): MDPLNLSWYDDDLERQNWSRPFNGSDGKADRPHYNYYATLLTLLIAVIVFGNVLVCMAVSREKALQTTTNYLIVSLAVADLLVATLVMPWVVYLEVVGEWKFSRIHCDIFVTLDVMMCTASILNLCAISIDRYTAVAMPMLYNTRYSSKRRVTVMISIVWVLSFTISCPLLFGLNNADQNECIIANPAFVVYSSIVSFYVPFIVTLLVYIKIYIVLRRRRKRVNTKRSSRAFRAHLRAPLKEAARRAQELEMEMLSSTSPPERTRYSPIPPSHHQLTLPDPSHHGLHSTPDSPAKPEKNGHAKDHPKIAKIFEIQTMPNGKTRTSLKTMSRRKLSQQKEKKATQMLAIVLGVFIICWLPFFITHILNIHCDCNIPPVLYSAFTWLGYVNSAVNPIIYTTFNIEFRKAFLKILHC
Protocol: as §1
• Receptor source: Recombinant mammalian cells (CHO-K1) • Radioligand: [^3H]-Raclopride (80.8 Ci/mmol) • Final ligand concentration: 4 nM • Non-specific determinant: 0.1 mM Haloperidol • Reference compound: Haloperidol • Positive control: Haloperidol Incubation Conditions:
as §2, with “Tris-HCl, 120” for “Tris-HCl, 4”, “mM NaCl, 5 mM KCl, 5 mM MgCl2, 1 mM EDTA” for “mM CaCl2), 0.1% Ascorbic acid”, “for 2” for “for 1”, “human dopamine […]” for “human 5-HT2A”

[4] = Rodent brain penetration study; assay type: in vivo; conditions: rat, brain/plasma, po, fed male Wistar rats, 3 mg/kg p.o., mean ± S.D, n = 3, read-out: Rat Brain Penetration (Cbrain/Cplasma) at 3 mg/kg, p.o. @ 1 h
Protocol: Male Wistar rats (260±40 g) were used as experimental animals. Three animals were housed in each cage. Animals were given water and food ad libitum throughout the experiment and maintained on a 12 h light/dark cycle.
Brain penetration was determined in discrete manner in rats. One day prior to dosing, male Wistar rats were acclimatized and randomly grouped according to their body weight. At each time point (0.50, 1 and 2 h), n=3 animals were used.
The test compounds were suitably preformulated and administered orally at (free base equivalent) 3 mg/kg. Blood samples were removed via cardiac puncture under isoflurane anesthesia. The animals were sacrificed to collect brain tissue. Plasma was separated and brain samples were homogenized. Plasma and brain homogenates were stored frozen at −20° C. until analysis. The concentrations of the test compounds in plasma and brain were determined using LC-MS/MS method.
The test compounds were quantified in plasma and brain homogenate by qualified LC-MS/MS method using suitable extraction technique in the calibration range of 1-500 ng/mL. Study samples were analyzed using calibration samples in the batch and quality control samples spread across the batch. Extent of brain-plasma ratio (Cbrain/Cplasma) was calculated.

[5] = biological target: T3, cloned human 5-HT1A receptor (Homo sapiens, UniProt P08908); assay: Determination of Ki at 5-HT1A receptor (radioligand binding, [3H]-8-Hydroxy DPAT); conditions: HEK293-EBNA recombinant cells; [3H]-8-Hydroxy DPAT 0.8 nM; read-out: Ki h5-HT1A
T3 construct: expressed in transfected cells; host or cells: HEK293-EBNA
T3 sequence (P08908 1-422): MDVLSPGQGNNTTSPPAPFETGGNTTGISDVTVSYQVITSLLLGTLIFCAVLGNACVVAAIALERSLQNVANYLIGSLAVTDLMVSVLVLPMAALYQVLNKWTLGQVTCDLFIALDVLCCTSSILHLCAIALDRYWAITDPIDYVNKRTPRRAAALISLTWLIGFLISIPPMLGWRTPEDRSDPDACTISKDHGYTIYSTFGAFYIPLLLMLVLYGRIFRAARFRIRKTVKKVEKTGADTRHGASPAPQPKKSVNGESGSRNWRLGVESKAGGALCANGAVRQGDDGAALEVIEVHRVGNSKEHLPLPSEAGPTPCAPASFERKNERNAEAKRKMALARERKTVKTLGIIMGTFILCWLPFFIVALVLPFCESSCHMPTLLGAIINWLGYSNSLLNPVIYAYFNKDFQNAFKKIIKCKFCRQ
Protocol: as §1
• Receptor source: Recombinant mammalian cells (HEK293-EBNA) • Radioligand: [^3H]-8-Hydroxy DPAT (200 Ci/mmol) • Final ligand concentration: 0.8 nM • Non-specific determinant: 0.1 mM U92016A • Reference compound: U92016A • Positive control: U92016A Incubation Conditions:
as §2, with “Tris-HCl, 0.5” for “Tris-HCl, 4”, “mM EDTA, 10 mM MgSO4,” for “mM CaCl2),”, “for 2” for “for 1”, “human 5-HT1A” for “human 5-HT2A”

[6] = Rodent pharmacokinetic study; assay type: in vivo, Male Wistar rats; conditions: rat, plasma, mean ± S.D, n = 3; for bioavailability: oral 3 mg/kg vs intravenous 1 mg/kg, read-out: F (Bioavailability)
Protocol: Male Wistar rats (260±50 g) were used as experimental animals. Animals were housed individually in polypropylene cage. Two days prior to study, male Wistar rats were anesthetized with isoflurane for surgical placement of jugular vein catheter. Rats were randomly divided for oral (3 mg/kg) and intravenous (1 mg/kg) dosing (n=3/group) and fasted overnight before oral dosing (p.o.). However, food and water were provided ad libitum to the rats allocated for intravenous dosing.
At pre-determined time points, blood samples were collected through jugular vein and replenished with an equivalent volume of normal saline. Collected blood was transferred into a labeled eppendorf tube containing 10 μL of heparin as an anticoagulant. Typically blood samples were collected at 0.08, 0.25, 0.5, 1, 2, 4, 6, 8, and 24 h post dose. Blood samples were centrifuged at 4000 rpm for 10 min. Plasma was separated and stored frozen at −80° C. until analysis. The concentrations of the test compounds were quantified in plasma by qualified LC-MS/MS method using suitable extraction technique. The test compounds were quantified in the calibration range around 1-1000 ng/mL in plasma. Study samples were analyzed using calibration samples in the batch and quality control samples spread across the batch.
Pharmacokinetic parameters Cmax, AUCt, t1/2. Clearance and Bioavailability (F) were calculated using standard non-compartmental model by using Phoenix WinNonlin 6.0.4 version software package.

dopamine receptor = assay: Reserpine-induced dihydroxyphenylalanine (DOPA) accumulation assay in rat striatum; assay type: in vivo; conditions: apomorphine 0.1 mg/kg, s.c., rat, reserpine 5.0 mg/kg
Protocol: Reserpine (5.0 mg/kg, s.c.) was injected, after which rats were fasted for 18 h before sacrifice. […] Each rat was sacrificed and the striatum was dissected out of the whole brain on ice. Each striatum was weighed and homogenized individually in buffer containing 0.01 N hydrochloric acid and 0.2 mg/ml L-cysteine. Supernatants were subjected for quantification of DOPA using HPLC coupled to electrochemical detector.

[7] = biological target: T4, recombinant rat 5-HT7 receptor (Rattus norvegicus, UniProt P32305); assay: Determination of Kb at 5-HT7 receptor, pCRE-Luc reporter gene assay in CHO cells; assay type: cell-based
T4 construct: expressed in transfected cells
T4 sequence (P32305 whole entry): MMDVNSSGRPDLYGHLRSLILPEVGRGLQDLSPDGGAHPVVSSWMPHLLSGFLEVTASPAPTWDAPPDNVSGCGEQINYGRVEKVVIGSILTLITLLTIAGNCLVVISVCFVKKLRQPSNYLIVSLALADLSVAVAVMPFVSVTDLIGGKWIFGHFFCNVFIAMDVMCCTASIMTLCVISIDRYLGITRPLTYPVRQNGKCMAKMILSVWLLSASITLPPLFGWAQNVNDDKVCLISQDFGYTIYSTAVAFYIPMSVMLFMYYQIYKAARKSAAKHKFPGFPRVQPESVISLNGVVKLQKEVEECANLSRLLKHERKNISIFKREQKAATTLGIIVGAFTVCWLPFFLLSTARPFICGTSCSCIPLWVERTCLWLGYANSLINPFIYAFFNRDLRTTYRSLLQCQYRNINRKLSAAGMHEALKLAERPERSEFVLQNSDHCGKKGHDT

[8] = biological target: T4, recombinant rat 5-HT7 receptor; assay: as above; assay type: cell-based; remark: listed apart in the source
Protocol: A stable CHO cell line expressing recombinant rat 5-HT7 receptor and pCRE-Luc reporter system was used for cell-based assay. The assay offers a non-radioactive based approach to determine binding of a compound to GPCRs. In this specific assay, the level of intracellular cAMP which is modulated by activation or inhibition of the receptor is measured. The recombinant cells harbor luciferase reporter gene under the control of cAMP response element.
The above cells were grown in 96 well clear bottom white plates in Hams F12 medium containing 10% fetal bovine serum (FBS). Prior to the addition of compounds or standard agonist, cells were serum starved overnight. Increasing concentrations of test compound were added along with 1 μM of serotonin in Opti-MEM medium to the cells. The incubation was continued at 37° C. in CO2 incubator for 4 hours. Medium was removed and cells were washed with phosphate buffered saline. The cells were lysed and luciferase activity was measured in a Luminometer. Luminescence units were plotted against the compound concentrations using GraphPad Prism software. EC50 values of the compounds were defined as the concentration required in reducing the luciferase activity by 50%. The Kb values were calculated by feeding the concentration of agonist used in the assay and its EC50 value in the same software.

[9] = intravenous (bolus) 1 mg/kg, male Wistar rats
[10] = oral (gavage) 3 mg/kg, fasted male Wistar rats

T1 sequence (P28223 whole entry): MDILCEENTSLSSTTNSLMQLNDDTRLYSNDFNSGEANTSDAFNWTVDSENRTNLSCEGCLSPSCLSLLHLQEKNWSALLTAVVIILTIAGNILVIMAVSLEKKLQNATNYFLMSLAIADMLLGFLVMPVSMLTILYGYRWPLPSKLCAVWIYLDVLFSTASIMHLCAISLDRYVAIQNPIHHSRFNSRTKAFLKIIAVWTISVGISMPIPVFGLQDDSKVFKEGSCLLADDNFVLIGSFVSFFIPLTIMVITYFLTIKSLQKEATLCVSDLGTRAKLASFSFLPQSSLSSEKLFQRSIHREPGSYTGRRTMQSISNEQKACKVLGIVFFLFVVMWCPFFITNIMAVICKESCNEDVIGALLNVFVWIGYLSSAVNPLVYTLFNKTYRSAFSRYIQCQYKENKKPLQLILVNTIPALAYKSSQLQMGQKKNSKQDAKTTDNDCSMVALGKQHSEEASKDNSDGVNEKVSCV

Structure (SMILES) | Ki [1] [nM] | Ki ([2]; cells printed in μM) [µM] | Ki [3] [nM] | Kp at 1 h [4] | Ki [5] [nM] | AUC(0-t) [6, 9] [ng·h/mL] | clearance [6, 9] [mL/min/kg] | half-life [6, 9] [min] | bioavailability ([6]; male Wistar rats) [%] | AUC(0-t) [6, 10] [ng·h/mL] | Cmax [6, 10] [ng/mL] | half-life [6, 10] [min] | change in reserpine-induced DOPA accumulation in striatum (dopamine receptor) | Ki [2] [µM] | agonist activity at rat recombinant 5-HT7 receptor [7] | antagonistic activity at rat recombinant 5-HT7 receptor ([8]; pCRE-Luc reporter gene assay) | Kb ([8]; rat receptor, with 1 μM serotonin, luciferase readout, read-out: Kb at 5-HT7 receptor) [nM]
O=C1C[C@H]2CCCN2C(=O)N1C[C@H]1CCCC[C@H]1CN1CCC(c2noc3cc(F)ccc23)CC1 [Example 29, 2-{2-[4-(6-Fluoro-benzo[d]isoxazol-3-yl)-piperidin-1-ylmethyl]-cyclohexylmethyl}-tetrahydro-pyrrolo[1,2-c]pyrimidine-1,3-dione oxalate] | 0.8 | > 10 | 0.2 | 2.73 ± 0.23 | 10 | 291 ± 17 | 57 ± 3 | 60 ± 6 | 4.6 ± 2 | 40 ± 15 | 37 ± 14 | 54 ± 6 |  |  |  |  | 
CN1CCc2cccc3c2[C@H]1Cc1ccc(O)c(O)c1-3 [apomorphine, reference compound] |  |  |  |  |  |  |  |  |  |  |  |  | significant decrease |  |  |  | 
O=C1C[C@@H]2CCCN2C(=O)N1CCCCN1CCC(c2noc3cc(F)ccc23)CC1 [Example 5, 2-{4-[4-(6-Fluoro-benzo[d]isoxazol-3-yl)-piperidin-1-yl]-butyl}-tetrahydro-pyrrolo[1,2-c]pyrimidine-1,3-dione] | 0.7 | > 10 | 7.3 | 1.06 ± 0.46 | 14.7 | 226 ± 11 | 74 ± 3.4 | 30 ± 6 | 22 ± 9 | 151 ± 61 | 152 ± 44 | 42 ± 6 |  |  |  |  | 
O=C1C[C@@H]2CCCCN2C(=O)N1CCCCN1CCC(c2noc3cc(F)ccc23)CC1 [Example 13, 2-{4-[4-(6-Fluoro-benzo[d]isoxazol-3-yl)-piperidin-1-yl]-butyl}-hexahydro-pyrido[1,2-c]pyrimidine-1,3-dione] | 2.5 |  | 2.5 |  | 14.9 |  |  |  |  |  |  |  |  | 1.63 |  |  | 
O=C1C[C@@H]2COCCN2C(=O)N1CCCCN1CCN(c2nsc3ccccc23)CC1 [Example 18, 7-[4-(4-Benzo[d]isothiazol-3-yl-piperazin-1-yl)-butyl]-tetrahydro-pyrimido[6,1-c][1,4]oxazine-6,8-dione oxalate] | 4.2 |  | 6.5 |  | 0.8 |  |  |  |  |  |  |  |  | 1.74 | no detectable agonist activity | antagonistic activity | 1
COC(=O)N1CCN2C(=O)N(CCCCN3CCC(c4noc5cc(F)ccc45)CC3)C(=O)C[C@@H]2C1 [Example 36, 7-{4-[4-(6-Fluoro-benzo[d]isoxazol-3-yl)-piperidin-1-yl]-butyl}-6,8-dioxo-octahydro-pyrazino[1,2-c]pyrimidine-2-carboxylic acid methyl ester fumarate] | 2.2 |  | 3.3 |  | 130 |  |  |  |  |  |  |  |  | 1.48 |  |  | 
O=C1C[C@@H]2CCCN2C(=O)N1CCCN1CCC(c2noc3cc(F)ccc23)CC1 [Example 24, 2-{3-[4-(6-Fluoro-benzo[d]isoxazol-3-yl)-piperidin-1-yl]-propyl}-tetrahydro-pyrrolo[1,2-c]pyrimidine-1,3-dione] | 7.1 | > 10 | 103 |  | 1690 |  |  |  |  |  |  |  |  |  |  |  | 

From patent publication US12391698B2, “Substituted piperidines and piperazines and methods for the treatment of CNS disorders” (SUVEN LIFE SCIENCES LIMITED, priority 2022, dated 2025)
